In ChEMBL document CHEMBL1201862, “PubChem BioAssay data set” (2004):
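Grown in 96-well plates, cells were treated for 48 hours with each compound at five concentrations. Insufficient inhibition: endpoint recorded as highest concentration tested. At the GI50, growth is halved.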 Calls of active or inactive are those of the source. No stated cut-off is given here; in the data, active = GI50 up to about 1.1 µM and inactive = higher.

Experiments:
Assay in all cases: NCI tumour cell line growth inhibition, 48 h
[1] = tested on: SR
[2] = tested on: CAKI-1
[3] = tested on: MDA-MB-231
[4] = tested on: SK-MEL-2
[5] = tested on: COLO 205
[6] = tested on: SF-268
[7] = tested on: TK-10
[8] = tested on: HOP-62
[9] = tested on: CCRF-CEM
[10] = tested on: SNB-19
[11] = tested on: K562
[12] = tested on: SK-OV-3
[13] = tested on: EKVX
[14] = tested on: UACC-257
[15] = tested on: MCF7
[16] = tested on: KM12
[17] = tested on: NCI-H226
[18] = tested on: NCI-H460
[19] = tested on: M14
[20] = tested on: A498
[21] = tested on: MDA-N
[22] = tested on: SF-295
[23] = tested on: SK-MEL-28
[24] = tested on: SK-MEL-5
[25] = tested on: T47D
[26] = tested on: NCI-H522
[27] = tested on: HT-29
[28] = tested on: PC-3
[29] = tested on: SW-620
[30] = tested on: ACHN
[31] = tested on: DU-145
[32] = tested on: OVCAR-4
[33] = tested on: NCI-H23
[34] = tested on: NCI/ADR-RES
[35] = tested on: HCC 2998
[36] = tested on: LOX IMVI
[37] = tested on: OVCAR-5
[38] = tested on: BT-549
[39] = tested on: Hs-578T
[40] = tested on: OVCAR-8
[41] = tested on: UACC-62
[42] = tested on: A549
[43] = tested on: 786-0
[44] = tested on: RPMI-8226
[45] = tested on: HL-60
[46] = tested on: RXF 393
[47] = tested on: U-251
[48] = tested on: MDA-MB-435
[49] = tested on: UO-31
[50] = tested on: OVCAR-3
[51] = tested on: HOP-92
[52] = tested on: HCT-15
[53] = tested on: SN12C
[54] = tested on: Malme-3M
[55] = tested on: SNB-75
[56] = tested on: HCT-116
[57] = tested on: IGROV-1
[58] = tested on: MOLT-4
[59] = tested on: SF-539

Measured: GI50

Nc1nc(SCc2ccccc2Cl)cc(C(=O)O)n1
inactive: [1] 39 µM | [2] > 100 µM | [3] > 100 µM | [4] 58.9 µM | [5] 39.4 µM | [6] 52.7 µM | [7] > 100 µM | [8] 63.1 µM | [9] 32.2 µM | [10] > 100 µM | [11] 46.5 µM | [12] > 100 µM | [13] 54.1 µM | [14] > 100 µM | [15] > 100 µM | [16] 55.5 µM | [17] 49.1 µM | [18] 41.5 µM | [19] > 100 µM | [20] > 100 µM | [21] 96.4 µM | [22] 58.2 µM | [23] 87.3 µM | [24] 76.9 µM | [25] > 100 µM | [26] 30.9 µM | [27] > 100 µM | [28] 53.6 µM | [29] 70.6 µM | [30] 91.4 µM | [31] > 100 µM | [32] 60 µM | [33] 57.4 µM | [34] 33.4 µM | [35] 59.2 µM | [36] 44.4 µM | [37] 78 µM | [38] 97.9 µM | [39] 49.1 µM | [40] 46.9 µM | [41] > 100 µM | [42] > 100 µM | [43] 79.1 µM | [44] 54.1 µM | [45] 64.1 µM | [46] > 100 µM | [47] 54.8 µM | [48] 73.1 µM | [49] 67 µM | [50] 28.6 µM | [51] 46.2 µM | [53] 97.1 µM | [54] 39.4 µM | [55] > 100 µM | [56] 54.5 µM | [57] > 100 µM
41.9 µM: [52]

O=C(NCCN1CCCCC1)c1ccc(I)cc1
> 100 µM: [52]
inactive: [1] > 100 µM | [2] > 100 µM | [3] > 100 µM | [4] > 100 µM | [5] 94.6 µM | [6] > 100 µM | [7] > 100 µM | [8] > 100 µM | [9] > 100 µM | [10] > 100 µM | [11] > 100 µM | [12] > 100 µM | [13] > 100 µM | [14] > 100 µM | [15] > 100 µM | [16] > 100 µM | [17] > 100 µM | [18] > 100 µM | [19] > 100 µM | [20] 24.8 µM | [21] > 100 µM | [22] > 100 µM | [23] > 100 µM | [24] 33.9 µM | [25] > 100 µM | [26] > 100 µM | [27] 39.5 µM | [28] > 100 µM | [29] > 100 µM | [30] > 100 µM | [31] 69.3 µM | [32] > 100 µM | [33] > 100 µM | [34] > 100 µM | [35] > 100 µM | [36] > 100 µM | [37] > 100 µM | [38] > 100 µM | [39] 61 µM | [40] > 100 µM | [42] > 100 µM | [43] > 100 µM | [44] > 100 µM | [46] 42.4 µM | [47] > 100 µM | [48] > 100 µM | [58] > 100 µM | [49] > 100 µM | [50] > 100 µM | [51] 96.4 µM | [53] > 100 µM | [54] > 100 µM | [55] 89.3 µM | [56] > 100 µM | [57] > 100 µM | [59] > 100 µM

CC[C@H](C)c1occ2c(O)c(C(=O)O)c(=O)cc-2c1C
inactive: [1] 21.9 µM | [2] 37.8 µM | [3] 23 µM | [4] 17.3 µM | [5] 19.3 µM | [6] 33.7 µM | [7] 40.8 µM | [8] 24.9 µM | [9] 17.5 µM | [10] 31.7 µM | [11] 29.1 µM | [12] 26.1 µM | [13] 30.8 µM | [14] 30.3 µM | [15] 29.2 µM | [16] 18.5 µM | [17] 33.8 µM | [18] 24.3 µM | [19] 31.5 µM | [20] 29 µM | [21] 24 µM | [22] 31.3 µM | [24] 18.3 µM | [25] 20.7 µM | [26] 14.7 µM | [27] 25.7 µM | [28] 33.5 µM | [29] 20.4 µM | [30] 26.7 µM | [31] 34.9 µM | [32] 24.8 µM | [33] 21.4 µM | [34] 20.3 µM | [35] 21.1 µM | [36] 15.6 µM | [37] 19.5 µM | [38] 25.9 µM | [39] 48.5 µM | [40] 19.2 µM | [41] 17.3 µM | [42] 30 µM | [43] 40.1 µM | [44] 30.7 µM | [45] 12.7 µM | [46] 15.5 µM | [47] 28.5 µM | [48] 22.1 µM | [58] 19.8 µM | [50] 19.5 µM | [51] 21.8 µM | [53] 22.5 µM | [54] 17.5 µM | [55] 55.6 µM | [56] 18.8 µM | [57] 18.6 µM | [59] 20.7 µM
16.7 µM: [52]

CCOC(=O)c1nc2cc(C(F)(F)F)ccc2nc1Oc1ccc(C(=O)OC)cc1
51.5 µM: [52]
inactive: [1] > 100 µM | [2] > 100 µM | [3] > 100 µM | [4] > 100 µM | [5] > 100 µM | [6] > 100 µM | [7] > 100 µM | [9] 97.1 µM | [10] > 100 µM | [11] > 100 µM | [13] > 100 µM | [14] > 100 µM | [15] > 100 µM | [16] > 100 µM | [17] > 100 µM | [18] > 100 µM | [19] 64.3 µM | [20] > 100 µM | [21] > 100 µM | [22] > 100 µM | [23] > 100 µM | [24] > 100 µM | [25] > 100 µM | [26] 69.2 µM | [28] > 100 µM | [29] > 100 µM | [30] > 100 µM | [31] > 100 µM | [32] 78.7 µM | [34] > 100 µM | [35] > 100 µM | [36] 83.8 µM | [37] > 100 µM | [38] > 100 µM | [39] > 100 µM | [40] > 100 µM | [41] > 100 µM | [42] > 100 µM | [43] > 100 µM | [44] > 100 µM | [45] 35.1 µM | [46] 85.5 µM | [47] > 100 µM | [48] > 100 µM | [58] > 100 µM | [49] > 100 µM | [50] > 100 µM | [51] > 100 µM | [53] > 100 µM | [54] > 100 µM | [55] > 100 µM | [56] > 100 µM | [57] > 100 µM | [59] > 100 µM

Nc1nonc1-c1noc(-c2nonc2N)[n+]1[O-]
19.7 µM: [52]
active: [9] 0.366 µM
inactive: [1] 93.8 µM | [2] 18.4 µM | [3] > 100 µM | [4] > 100 µM | [5] > 10 µM | [6] > 100 µM | [7] 43 µM | [8] > 100 µM | [10] > 100 µM | [11] 41 µM | [12] > 100 µM | [13] 30.8 µM | [14] > 100 µM | [15] 33.3 µM | [16] 58.9 µM | [17] 49.5 µM | [18] 62.7 µM | [19] 29.6 µM | [20] > 100 µM | [21] 69.7 µM | [22] > 100 µM | [23] > 100 µM | [24] 32.1 µM | [25] > 10 µM | [26] 13.1 µM | [27] 16 µM | [28] 69.7 µM | [29] 27 µM | [30] 33.8 µM | [31] > 100 µM | [32] > 100 µM | [33] 77.4 µM | [34] 69.2 µM | [35] > 100 µM | [36] 63.2 µM | [37] 33.7 µM | [38] 64.1 µM | [39] > 100 µM | [41] 66.7 µM | [42] 30.3 µM | [43] 37.1 µM | [44] 54.6 µM | [46] 24.9 µM | [47] > 100 µM | [48] 57 µM | [58] 54.6 µM | [49] 42.9 µM | [51] 69.8 µM | [53] > 100 µM | [54] 20.4 µM | [56] > 100 µM | [57] > 100 µM
